Drawing on ChEMBL document CHEMBL1121512, “1-[Ethoxyamino)methyl]-1,3,4,5-tetrahydro-7,8-dimethoxy-2-benzoxepins: a new class of antianaphylactic agents” (1980), this text covers inhibition in vivo for 6 molecules.

What all share (assay type): functional
Assay [1] deals with Rattus norvegicus. The assay is described as follows: % inhibition against anaphylactic response in rat at dose 50 mg/kg administered orally after 120 min. The settings on record: 2 h, route oral.
Assay [2] relates to Rattus norvegicus. Put plainly: % inhibition against anaphylactic response in rat at dose 50 mg/kg administered orally after 60 min. Particulars: 1 h, route oral.
For assay [3], the system named is Rattus norvegicus. Put plainly: % inhibition against anaphylactic response in rat at dose 10 mg/kg administered orally after 60 min. The settings on record: 1 h, route oral.

For `COc1cc2c(cc1OC)C(COCCN1CCN(c3ccc(F)cc3)CC1)OCCC2` (stereo unspecified), the results for the inhibition in vivo at 50 mg/kg in the assay with Rattus norvegicus [1] and with Rattus norvegicus [2] were 0% and 52%, respectively.
The matching figures for `COc1cc2c(cc1OC)C(COCCN1CCN(c3ccccc3OC)CC1)OCCC2` (stereo unspecified): 20% and 100%.
For `COc1cc2c(cc1OC)C(COCCN1CCN(c3ccccn3)CC1)OCCC2` (stereo unspecified), in that order: 35% and 94%.
Consider `COc1cc2c(cc1OC)C(COCCN1CCN(C)CC1)OCCC2` (stereo unspecified), for which the inhibition in vivo at 50 mg/kg in the assay with Rattus norvegicus [1] and with Rattus norvegicus [2] was 0% in each case.
In the case of `COc1cc2c(cc1OC)C(COCCNCCO)OCCC2` (stereo unspecified), the inhibition in vivo at 50 mg/kg with Rattus norvegicus [1] and in the assay with Rattus norvegicus [2] was 0% each time.
Turning to `O=C(O)c1cc(=O)c2c(OCC(O)COc3cccc4oc(C(=O)O)cc(=O)c34)cccc2o1` [CROMOLYN SODIUM], at 10 mg/kg the inhibition in vivo with Rattus norvegicus [3] was 100%.

In general, inhibition in vivo refers to how much of the control response was suppressed.
